Reference: patent US9067908B2, “Polyphenolic bioprecursors” (RHODIA CHIMIE, priority 2005, dated 2015)
“Also recorded” adds a separate entry of the source. Like-named read-outs stand apart in the source and are kept apart here.

Tests used:
[1] = tested on: Stratum corneum enzymatic extract
Procedure: (§1) Samples of Stratum corneum are taken with surgical sparadrap (type Blenderm 3M Health Care, St. Paul, Minn., USA). The buffers used in the bio-hydrolysis trials are: 50 mM Tris(tris[hydroxymethyl]aminomethane) pH 7.3 and pH 8; 50 mM Na-acetate pH 5.5; 50 mM MES (2-[N-morpholino]-ethanesulphonic) acid pH 6 and 50 mM phosphate pH 6.5.
(§2) The precursors are solubilised in acetonitrile at a concentration of 1 g/l. For the bio-hydrolysis trials 50 μl of substrate and 50 μl of acetonitrile in 900 μl of enzymatic extract in the buffer at a chosen pH are added. The reaction mixtures are incubated at 35° C. without stirring and shielded from the light. The evolution of the bio-hydrolysis is determined by HPLC (high-performance liquid chromatography) with reverse phase polarity. The controls are effected in the same solutions without enzymatic extracts of skin, in order to determine the chemical stability of the products.

[2] = tested on: Stratum corneum enzymatic extract; experiment: Bio-hydrolysis with the cutaneous enzymes obtained by tape stripping; conditions: for Bio-hydrolysis Rate (%): 35° C.
Procedure: as §1, §2

[3] = Solubility of precursor in the bio-hydrolysis medium; assay type: physicochemical
Text: Resveratrol trilipoate is obtained via lipoic acid chloride prepared in situ under argon at ambient temperature in dichloromethane. The acylation reaction leads to a mixture of the products of coupling (phenolic and recorcinic monolipoates, dilipoates and trilipoates). The trilipoates were obtained after chromatography on silica. The product was not characterised for reasons of insolubility. For the same reasons it cannot be bio-hydrolysed (see Table 1).

SMILES | Active substance(s) released by bio-hydrolyse: Polyphenol (PP) [1] | Bio-hydrolysis Rate (%) [1] [%] | Active substance(s) released by bio-hydrolyse: A [2] | Active substance(s) released by bio-hydrolyse: B [2] | Active substance(s) released by bio-hydrolyse: Polyphenol (PP) [2] | also measured
CCCCCC(=O)Oc1ccc(/C=C/c2cc(OC(=O)CCCCC)cc(OC(=O)CCCCC)c2)cc1 [Res(caproate)3, 3,5,4′-resveratrol tricaproate, reference compound] | Resveratrol | 98 | – | – | – | Active substance(s) released by bio-hydrolyse: A [1]: Caproate
CC(=O)Oc1cc(/C=C/c2ccc(OC(=O)CCCCC3CCSS3)cc2)cc(OC(C)=O)c1 (stereo not drawn) [Res(Ac)2-lipoate, (E)-4-(3,5-diacetoxystyryl)phenyl-5-(1,2-dithiolan-3-yl)pentanoate] | – | – | Acetate | Lipoate | lipoic acid; also recorded: Resveratrol + | Bio-hydrolysis Rate (%) ([2]; bio-hydrolysis time 48 h): 87%
COc1cc(/C=C/C(=O)Oc2ccc(/C=C/c3cc(OC(C)=O)cc(OC(C)=O)c3)cc2)ccc1OC(C)=O [Res(Ac)2-ferulate(Ac), (E)-4-((E)-3,5-diacetoxystyryl)phenyl 3-(4-acetoxy-3-methoxyphenyl)acrylate] | – | – | Acetate | Ferulic acid | Resveratrol | Bio-hydrolysis Rate (%) ([2]; bio-hydrolysis time 6.5 h): 71%
CCCCCC(=O)Oc1ccc(/C=C/c2cc(OC(C)=O)cc(OC(C)=O)c2)cc1 [Res(Ac)2-caproate, 3,5-resveratrol diacetate-4′-caproate] | Resveratrol | 95 | – | – | – | –
O=C(CCCCC1CCSS1)Oc1ccc(/C=C/c2cc(OC(=O)CCCCC3CCSS3)cc(OC(=O)CCCCC3CCSS3)c2)cc1 (stereo not drawn) [Res(lipoate)3, 3,5,4′-resveratrol trilipoate] | – | – | – | – | – | Solubility of precursor in the medium [3]: insolubility
CC(=O)Oc1cc(OC(=O)CCC(=O)Oc2c(C)c(C)c3c(c2C)CCC(C)(CCCC(C)CCCC(C)CCCC(C)C)O3)c2c(=O)cc(-c3ccc(OC(C)=O)c(OC(C)=O)c3)oc2c1 (stereo not drawn) [Lut(Ac)3-succinate-Vit E, 7-acetoxy-2-(3,4-diacetoxyphenyl)-4-oxo-4H-chromen-5-yl 2,5,7,8-tetramethyl-2-(4,8,12-trimethyltridecyl)-3,4-dihydro-2H-chromen-6-yl succinate] | – | – | Acetate +; also recorded: Succinate | Vitamin E | Luteolin | Bio-hydrolysis Rate (%) ([2]; bio-hydrolysis time 5 h): 70%
